From patent US20100056524A1, “Compound” (priority 2008, published 2010)
Where a name gives a salt, the structure may show the parent alone. Read-outs that look alike come from different tables or passages of the source.

Columns and labels:
[1] = biological target: T1, PRK2 (Homo sapiens, UniProt Q16513); assay: PRK2 protein kinase assay; assay type: biochemical; conditions: for remaining activity at 10 µM: 10 μM compound; for residual kinase activity PRK2: 1 μm compound; for remaining activity at 1 µM: 1 μM compound
T1 construct: All protein kinases were of human origin and encoded full length proteins, unless indicated otherwise; made in house
T1 sequence (Q16513 501-984 limits assumed): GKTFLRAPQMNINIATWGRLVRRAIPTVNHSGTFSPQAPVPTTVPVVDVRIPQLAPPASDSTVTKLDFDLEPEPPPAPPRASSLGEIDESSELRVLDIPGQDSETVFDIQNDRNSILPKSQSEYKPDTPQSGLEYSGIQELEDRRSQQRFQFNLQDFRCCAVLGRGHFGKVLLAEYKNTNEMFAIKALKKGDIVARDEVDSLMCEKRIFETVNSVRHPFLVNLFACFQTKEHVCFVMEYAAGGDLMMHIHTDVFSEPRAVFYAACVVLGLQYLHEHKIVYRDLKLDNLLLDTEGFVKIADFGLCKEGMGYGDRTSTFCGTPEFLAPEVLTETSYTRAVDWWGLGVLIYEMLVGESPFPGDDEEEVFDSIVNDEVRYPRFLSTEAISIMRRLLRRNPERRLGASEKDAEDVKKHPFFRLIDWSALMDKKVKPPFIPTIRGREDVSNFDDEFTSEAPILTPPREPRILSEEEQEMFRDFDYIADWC
Excerpt: (§1) All protein kinases were of human origin and encoded full length proteins, unless indicated otherwise. They were either expressed as glutathione S-transferase (GST) fusion proteins in Escherichia Coli or as hexahistidine (His6)-tagged proteins in insect Sf21 cells. GST fusion proteins were purified by affinity chromatography on glutathione-Sepharose, and His6-tagged proteins on nickel/nitriloacetate-agarose. The procedures for expressing some of the protein kinases used herein have been detailed previously.^8,9 The following sections outline the DNA vectors synthesised and the procedures used to express and purifying protein kinases that have not been reported previously.
(§2) All assays (25.5 μl) were carried out at room temperature (21° C.) and were linear with respect to time and enzyme concentration under the conditions used. Assays were performed for 30 min using Multidrop Micro reagent dispensers (Thermo Electron Corporation, Waltham, Mass. 02454, USA) in a 96-well format. The concentration of magnesium acetate in the assays was 10 mM and the [γ-33P] ATP (800 cpm/pmol) was used at 5, 20 or 50 μM as indicated, in order to be at or below the Km for ATP for each enzyme. Protein kinases assayed at 5 μM ATP were: —ERK1, ERK8, PKBα, MARK3, Aurora C. Protein kinases assayed at 20 μM ATP were: —JNK1, PDK1, CHK1, CHK2, CDK2 and Aurora B. Protein kinases assayed at 50 μM ATP were: —MNK2, IKKepsilon and TBK1.
(§3) The assays were initiated with MgATP, stopped by addition of 5 μl of 0.5 M orthophosphoric acid and spotted on to P81 filterplates using a unifilter harvester (PerkinElmer, Boston, Mass. 02118, USA). The IC50 values of inhibitors were determined after carrying out assays at 10 different concentrations of each compound.
(§4) Unless stated otherwise, enzymes were diluted in 50 mM Tris/HCl pH 7.5, 0.1 mM EGTA, 1 mg/ml BSA, 0.1% (v/v) 2-mercaptoethanol and assayed in 50 mM Tris/HCl pH 7.5, 0.1 mM EGTA, 0.1% (v/v) 2-mercaptoethanol.

[2] = system: IRR; assay: IRR protein kinase assay; assay type: biochemical, human; conditions: for residual kinase activity: IRR
Excerpt: as §1, §2, §3, §4

[3] = biological target: T2, DYRK3 (Homo sapiens, UniProt O43781); assay: DYRK3 protein kinase assay; assay type: biochemical; conditions: for remaining activity at 10 µM: 10 μM compound; for residual kinase activity DYRK3: 1 μm compound; for remaining activity at 1 µM: 1 μM compound
T2 construct: All protein kinases were of human origin and encoded full length proteins, unless indicated otherwise; made in house
T2 sequence (O43781 1-588): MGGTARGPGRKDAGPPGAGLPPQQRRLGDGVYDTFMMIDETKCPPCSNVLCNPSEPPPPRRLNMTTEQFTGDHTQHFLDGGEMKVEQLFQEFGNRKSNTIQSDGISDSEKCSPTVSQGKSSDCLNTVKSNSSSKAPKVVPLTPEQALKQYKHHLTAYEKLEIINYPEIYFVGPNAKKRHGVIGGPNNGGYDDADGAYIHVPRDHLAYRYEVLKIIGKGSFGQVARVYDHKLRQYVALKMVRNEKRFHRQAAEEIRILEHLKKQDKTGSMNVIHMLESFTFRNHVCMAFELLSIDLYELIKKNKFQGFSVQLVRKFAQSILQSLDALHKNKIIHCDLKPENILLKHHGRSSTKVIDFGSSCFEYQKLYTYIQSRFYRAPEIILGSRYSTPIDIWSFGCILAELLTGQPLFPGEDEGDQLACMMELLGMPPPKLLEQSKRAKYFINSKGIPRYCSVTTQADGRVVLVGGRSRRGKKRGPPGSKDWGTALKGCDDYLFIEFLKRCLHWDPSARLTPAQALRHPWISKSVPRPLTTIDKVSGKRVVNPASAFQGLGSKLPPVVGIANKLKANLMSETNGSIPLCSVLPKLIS
Excerpt: as §1, §2, §3, §4

[4] = biological target: T3, GSK3b (Homo sapiens, UniProt P49841); assay: GSK3b protein kinase assay; assay type: biochemical; conditions: for remaining activity at 10 µM: 10 μM compound; for residual kinase activity GSK3b: 1 μm compound; for remaining activity at 1 µM: 1 μM compound
T3 construct: All protein kinases were of human origin and encoded full length proteins, unless indicated otherwise; made in house
T3 sequence (P49841 whole entry): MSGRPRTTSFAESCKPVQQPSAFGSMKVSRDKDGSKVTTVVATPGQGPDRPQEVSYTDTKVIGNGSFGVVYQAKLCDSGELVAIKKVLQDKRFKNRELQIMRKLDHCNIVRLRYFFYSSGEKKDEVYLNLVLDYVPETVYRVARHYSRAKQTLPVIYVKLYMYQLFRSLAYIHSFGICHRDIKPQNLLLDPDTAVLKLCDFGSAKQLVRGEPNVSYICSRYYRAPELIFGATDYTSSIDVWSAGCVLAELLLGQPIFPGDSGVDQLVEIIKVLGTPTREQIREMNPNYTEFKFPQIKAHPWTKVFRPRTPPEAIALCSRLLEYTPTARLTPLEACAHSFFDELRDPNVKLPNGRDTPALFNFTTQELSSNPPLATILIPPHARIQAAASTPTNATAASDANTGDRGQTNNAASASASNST
Excerpt: as §1, §2, §3, §4

[5] = biological target: T4, PIM1 (Homo sapiens, UniProt P11309); assay: PIM1 protein kinase assay; assay type: biochemical; conditions: for remaining activity at 10 µM: 10 μM compound; for residual kinase activity PIM1: 1 μm compound; for remaining activity at 1 µM: 1 μM compound
T4 construct: All protein kinases were of human origin and encoded full length proteins, unless indicated otherwise; made in house
T4 sequence (P11309 whole entry): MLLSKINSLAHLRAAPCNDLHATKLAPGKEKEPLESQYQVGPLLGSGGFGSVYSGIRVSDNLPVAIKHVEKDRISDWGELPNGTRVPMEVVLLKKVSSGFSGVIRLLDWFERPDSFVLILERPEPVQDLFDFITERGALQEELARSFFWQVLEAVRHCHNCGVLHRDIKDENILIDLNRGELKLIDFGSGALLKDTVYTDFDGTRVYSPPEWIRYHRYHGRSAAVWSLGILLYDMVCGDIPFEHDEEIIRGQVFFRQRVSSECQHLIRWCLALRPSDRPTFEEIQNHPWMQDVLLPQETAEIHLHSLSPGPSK
Excerpt: as §1, §2, §3, §4

[6] = biological target: T5, PLK1 (Homo sapiens, UniProt P53350); assay: PLK1 protein kinase assay; assay type: biochemical; conditions: for remaining activity at 10 µM: 10 μM compound; for residual kinase activity PLK1: 1 μm compound; for remaining activity at 1 µM: 1 μM compound
T5 construct: All protein kinases were of human origin and encoded full length proteins, unless indicated otherwise; made in house
T5 sequence (P53350 whole entry): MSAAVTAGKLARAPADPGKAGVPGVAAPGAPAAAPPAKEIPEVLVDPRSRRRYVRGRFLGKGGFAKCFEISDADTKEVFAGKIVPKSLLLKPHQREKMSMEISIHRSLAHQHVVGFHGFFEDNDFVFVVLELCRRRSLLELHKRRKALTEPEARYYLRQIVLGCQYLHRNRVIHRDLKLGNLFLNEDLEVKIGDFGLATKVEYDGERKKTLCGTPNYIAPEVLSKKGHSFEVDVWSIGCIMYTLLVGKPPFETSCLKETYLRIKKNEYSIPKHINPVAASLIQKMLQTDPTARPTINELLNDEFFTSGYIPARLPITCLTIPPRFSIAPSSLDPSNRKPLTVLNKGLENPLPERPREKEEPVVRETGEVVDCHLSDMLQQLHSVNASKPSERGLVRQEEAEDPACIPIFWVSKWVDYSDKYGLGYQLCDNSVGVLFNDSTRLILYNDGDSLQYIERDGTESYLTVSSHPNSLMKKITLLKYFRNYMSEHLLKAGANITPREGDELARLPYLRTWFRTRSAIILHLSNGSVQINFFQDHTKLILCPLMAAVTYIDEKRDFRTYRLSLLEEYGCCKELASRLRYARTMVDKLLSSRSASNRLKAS
Excerpt: as §1, §2, §3, §4

[7] = biological target: T6, DYRK2 (Homo sapiens, UniProt Q92630); assay: DYRK2 protein kinase assay; assay type: biochemical; conditions: for remaining activity at 10 µM: 10 μM compound; for residual kinase activity DYRK2: 1 μm compound; for remaining activity at 1 µM: 1 μM compound
T6 construct: All protein kinases were of human origin and encoded full length proteins, unless indicated otherwise; made in house
T6 sequence (Q92630 1-601): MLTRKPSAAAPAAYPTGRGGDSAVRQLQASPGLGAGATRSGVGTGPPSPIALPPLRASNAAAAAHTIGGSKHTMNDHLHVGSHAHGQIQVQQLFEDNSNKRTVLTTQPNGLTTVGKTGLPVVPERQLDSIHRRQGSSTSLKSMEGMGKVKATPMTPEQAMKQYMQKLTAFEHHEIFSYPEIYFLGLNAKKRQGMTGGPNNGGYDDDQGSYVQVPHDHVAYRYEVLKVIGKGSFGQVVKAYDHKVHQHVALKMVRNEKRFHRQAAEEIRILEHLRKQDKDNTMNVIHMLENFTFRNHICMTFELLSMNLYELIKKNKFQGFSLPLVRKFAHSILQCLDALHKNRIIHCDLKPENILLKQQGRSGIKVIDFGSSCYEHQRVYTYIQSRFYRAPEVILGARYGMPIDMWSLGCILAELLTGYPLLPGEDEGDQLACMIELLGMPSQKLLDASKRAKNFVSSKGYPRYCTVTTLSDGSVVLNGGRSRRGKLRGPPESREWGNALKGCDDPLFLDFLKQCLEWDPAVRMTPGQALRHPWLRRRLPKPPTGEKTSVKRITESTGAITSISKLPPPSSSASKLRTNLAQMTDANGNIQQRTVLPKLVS
Excerpt: as §1, §2, §3, §4

[8] = biological target: T7, Src (Homo sapiens, UniProt P12931); assay: Src protein kinase assay; assay type: biochemical; conditions: for remaining activity at 10 µM: 10 μM compound; for residual kinase activity Src: 1 μm compound; for remaining activity at 1 µM: 1 μM compound
T7 construct: All protein kinases were of human origin and encoded full length proteins, unless indicated otherwise; made in house
T7 sequence (P12931 whole entry): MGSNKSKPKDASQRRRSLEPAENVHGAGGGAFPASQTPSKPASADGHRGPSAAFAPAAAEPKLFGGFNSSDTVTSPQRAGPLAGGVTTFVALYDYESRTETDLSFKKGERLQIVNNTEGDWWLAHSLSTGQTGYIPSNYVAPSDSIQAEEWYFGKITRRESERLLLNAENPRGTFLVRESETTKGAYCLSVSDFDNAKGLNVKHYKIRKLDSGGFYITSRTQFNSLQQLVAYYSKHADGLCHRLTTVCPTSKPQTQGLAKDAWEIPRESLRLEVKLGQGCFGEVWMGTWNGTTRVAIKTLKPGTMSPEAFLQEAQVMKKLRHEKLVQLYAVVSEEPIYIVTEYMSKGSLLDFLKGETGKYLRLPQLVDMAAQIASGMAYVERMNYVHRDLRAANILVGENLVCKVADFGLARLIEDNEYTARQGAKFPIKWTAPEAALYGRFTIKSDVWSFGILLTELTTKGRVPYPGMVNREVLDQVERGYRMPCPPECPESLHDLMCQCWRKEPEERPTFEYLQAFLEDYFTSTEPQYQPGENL
Excerpt: as §1, §2, §3, §4

[9] = biological target: T8, SRPK1 (Homo sapiens, UniProt Q96SB4); assay: SRPK1 protein kinase assay; assay type: biochemical; conditions: for remaining activity at 10 µM: 10 μM compound; for residual kinase activity SRPK1: 1 μm compound; for remaining activity at 1 µM: 1 μM compound
T8 construct: All protein kinases were of human origin and encoded full length proteins, unless indicated otherwise; made in house
T8 sequence (Q96SB4 whole entry): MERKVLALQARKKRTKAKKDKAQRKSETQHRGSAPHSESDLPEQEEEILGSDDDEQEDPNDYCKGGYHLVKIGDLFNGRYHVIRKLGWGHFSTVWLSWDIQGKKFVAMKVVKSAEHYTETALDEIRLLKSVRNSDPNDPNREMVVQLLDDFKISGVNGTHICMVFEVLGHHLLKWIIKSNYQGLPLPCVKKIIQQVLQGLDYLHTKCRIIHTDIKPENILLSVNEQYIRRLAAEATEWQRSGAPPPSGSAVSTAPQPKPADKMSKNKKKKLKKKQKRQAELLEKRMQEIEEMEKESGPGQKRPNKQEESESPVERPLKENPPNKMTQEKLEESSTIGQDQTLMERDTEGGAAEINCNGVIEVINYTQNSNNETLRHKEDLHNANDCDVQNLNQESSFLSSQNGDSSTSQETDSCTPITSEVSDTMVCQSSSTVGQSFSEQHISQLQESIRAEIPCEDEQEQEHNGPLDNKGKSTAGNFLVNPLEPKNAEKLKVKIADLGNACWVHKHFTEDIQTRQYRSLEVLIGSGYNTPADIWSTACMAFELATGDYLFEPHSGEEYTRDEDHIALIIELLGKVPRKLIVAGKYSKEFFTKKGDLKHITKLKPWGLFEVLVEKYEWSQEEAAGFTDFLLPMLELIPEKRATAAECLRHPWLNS
Excerpt: as §1, §2, §3, §4

[10] = read-out: residual kinase activity PRK2
[11] = read-out: residual kinase activity DYRK3
[12] = read-out: residual kinase activity GSK3b
[13] = read-out: residual kinase activity PIM1
[14] = read-out: residual kinase activity PLK1
[15] = read-out: residual kinase activity DYRK2
[16] = read-out: residual kinase activity Src
[17] = read-out: residual kinase activity SRPK1
[18] = PRK2, read-out: residual kinase activity
[19] = DYRK3, read-out: residual kinase activity
[20] = GSK3b, read-out: residual kinase activity
[21] = PIM1, read-out: residual kinase activity
[22] = PLK1, read-out: residual kinase activity
[23] = DYRK2, read-out: residual kinase activity
[24] = Src, read-out: residual kinase activity
[25] = SRPK1, read-out: residual kinase activity

| SMILES | remaining activity at 10 µM [1, 10] | residual kinase activity PRK2 [1] | remaining activity at 1 µM [1, 18] | remaining activity at 10 µM [1, 18] | residual kinase activity ([2]; 1 μM compound) | residual kinase activity ([2]; 10 μM compound) | remaining activity at 1 µM [3, 19] | remaining activity at 10 µM [3, 19] | remaining activity at 1 µM [4, 20] | remaining activity at 10 µM [4, 20] | remaining activity at 1 µM [5, 21] | remaining activity at 10 µM [5, 21] | remaining activity at 1 µM [6, 22] | remaining activity at 10 µM [6, 22] | remaining activity at 1 µM [7, 23] | remaining activity at 10 µM [7, 23] | remaining activity at 1 µM [8, 24] | remaining activity at 10 µM [8, 24] | remaining activity at 1 µM [9, 25] | remaining activity at 10 µM [9, 25] | further results |
| --- | --- | --- | --- | --- | --- | --- | --- | --- | --- | --- | --- | --- | --- | --- | --- | --- | --- | --- | --- | --- | --- |
| O=C(NCCCNc1nc(Nc2cccc(F)c2)ncc1Br)C1CCC1 [Compound A, cyclobutanecarboxylic acid {3-[5-bromo-2-(3-fluoro-phenylamino)-pyrimidin-4-ylamino]-propyl}-amide, reference compound] | 4% | 24% |  |  |  |  |  |  |  |  |  |  |  |  |  |  |  |  |  |  | residual kinase activity IRR ([2]; 10 μM compound): 15%; residual kinase activity IRR ([2]; 1 μm compound): 32%; remaining activity at 10 µM [3, 11]: 7%; residual kinase activity DYRK3 [3]: 33%; remaining activity at 10 µM [4, 12]: 4%; residual kinase activity GSK3b [4]: 23%; remaining activity at 10 µM [5, 13]: 50%; residual kinase activity PIM1 [5]: 52%; remaining activity at 10 µM [6, 14]: 45%; residual kinase activity PLK1 [6]: 82%; remaining activity at 10 µM [7, 15]: 6%; residual kinase activity DYRK2 [7]: 36%; remaining activity at 10 µM [8, 16]: 12%; residual kinase activity Src [8]: 53%; remaining activity at 10 µM [9, 17]: 31%; residual kinase activity SRPK1 [9]: 69% |
| O=C(NCCCNc1nc(Nc2cccc(F)c2)ncc1C1CC1)C1CCC1 [Example 23, Cyclobutanecarboxylic acid {3-[5-cyclopropyl-2-(3-fluoro-phenylamino)-pyrimidin-4-ylamino]-propyl}-amide] | 60% | 67% | 67% | 60% | 44% | 17% | 78% | 36% | 53% | 20% | 78% | 46% | 90% | 62% | 67% | 50% | 77% | 50% | 75% | 40% | residual kinase activity IRR ([2]; 10 μM compound): 17%; residual kinase activity IRR ([2]; 1 μm compound): 44%; remaining activity at 10 µM [3, 11]: 36%; residual kinase activity DYRK3 [3]: 78%; remaining activity at 10 µM [4, 12]: 20%; residual kinase activity GSK3b [4]: 53%; remaining activity at 10 µM [5, 13]: 46%; residual kinase activity PIM1 [5]: 78%; remaining activity at 10 µM [6, 14]: 62%; residual kinase activity PLK1 [6]: 90%; remaining activity at 10 µM [7, 15]: 50%; residual kinase activity DYRK2 [7]: 67%; remaining activity at 10 µM [8, 16]: 50%; residual kinase activity Src [8]: 77%; remaining activity at 10 µM [9, 17]: 40%; residual kinase activity SRPK1 [9]: 75% |
| O=C(NCCCNc1nc(Nc2cccc(N3CCCC3=O)c2)ncc1C1CC1)c1cccs1 [Example 47, Thiophene-2-carboxylic acid (3-{5-cyclopropyl-2-[3-(2-oxo-pyrrolidin-1-yl)-phenylamino]-pyrimidin-4-ylamino}-propyl)-amide. Hydrochloride salt] |  |  | 76% | 68% | 64% | 25% | 73% | 33% | 73% | 31% | 82% | 57% | 88% | 75% | 81% | 63% | 80% | 67% | 81% | 78% |  |
| O=C(NCCCNc1nc(Nc2cccnc2)ncc1C1CC1)c1cccs1 [Example 50, Thiophene-2-carboxylic acid {3-[5-cyclopropyl-2-(pyridin-3-ylamino)-pyrimidin-4-ylamino]-propyl}-amide] |  |  | 68% | 58% | 39% | 17% | 59% | 22% | 52% | 19% | 63% | 92% | 101% | 66% | 76% | 38% | 84% | 50% | 84% | 57% |  |
